Test results taken from patent US6251950A, “Aliphatic propargylamines as cellular rescue agents” (University of Saskatchewan, priority 1998, dated 2001).

Key:
PC12 cells = details: cited from earlier work
[1] = test system: cerebellar granule cells (CGC); experiment: in vitro; type: cell-based, Wistar rat; details: 10^-7 M (FIG. 1c)
Source text: Cultures of cerebellar granule cells (CGC) can be induced into apoptosis by the addition of a high concentration of cytosine arabinoside (Ara C) (Dessi et al., 1995) and it has been shown that this is a p53 dependent apoptosis (Enokido et al, 1996). We have measured the antiapoptotic effect of N-(2-heptyl)propargylamine (2HPA) using this system and compared the results to those obtained with previously known aliphatic methyl propargylamines and deprenyl.
Cultures of CGC were obtained from 6-8 day old Wistar rat pups. Cultures were grown on glass in 35 mm petri dishes for 3 days and then used for experiments. 20 μl aliquots of drug solutions (Ara C, anti-apoptotic drugs, drug vehicles) were added to the medium of the cultures. 24 Hours later the cultures were fixed with FAM, and stained with bis-benzamide. Normal and apoptotic nuclei were counted to a total of 90-120 cells per culture. […] Concentrations in excess of 150 μM caused detachment of the cultures.
Compounds were added at the following concentrations: Ara C, 100 μM,

Parkinson's disease = details: cited from earlier work
damaged neurons = details: some models; cited from earlier work
[2] = rodents and humans; cited from earlier work
[3] = test system: catecholaminergic neuroblastoma SH-SY5Y cells; details: cited from earlier work
Alzheimer's disease = details: some patients; cited from earlier work
Tourette's syndrome = Tourette's syndrome patients; cited from earlier work
SOD1 mRNA, PC12 cells = details: Li, et al., 1995; cited from earlier work

Structure (SMILES): C#CCN(C)[C@H](C)Cc1ccccc1 [R-deprenyl]
- prevention of apoptosis in PC12 cells (PC12 cells): can prevent apoptosis
- blocking of Ara C induced apoptosis [1]: completely blocked
- effect in Parkinson's disease (Parkinson's disease; adjuvant to L-dopa): effective adjuvant to L-dopa
- onset of symptoms in Parkinson's disease (Parkinson's disease; early otherwise untreated cases, administered alone): delay onset of symptoms
- concentrations required to prevent apoptosis versus minimum necessary for MAO-B inhibition (damaged neurons): at least an order of magnitude lower
- life span and sexual activity [2]: prolong life span and sexual activity
- cytotoxicity of dopamine towards SH-SY5Y cells [3]: enhance the cytotoxicity of dopamine
- clinical condition of Alzheimer patients (Alzheimer's disease): improved the clinical condition of some Alzheimer patients
- symptoms of attention deficit disorder (Tourette's syndrome): improved
- SOD1 mRNA induction (previous findings) (SOD1 mRNA, PC12 cells): can induce SOD1 mRNA in a dose dependent manner
